Assay results as given in US9549895B2, “Methods and compositions for preserving the viability of photoreceptor cells” (Massachusetts Eye and Ear Infirmary, priority 2004, dated 2017).
Values joined by “and” are separate entries in the source; they are usually repeats but may differ in a detail not shown here. Equal values may be shown once.

Experiments:
[1] = test system: photoreceptor cell death (TUNEL-positive cells in the ONL); experiment: TUNEL staining 24 hours after retinal detachment with subretinal administration of cytokines; type: in vivo, rat; conditions: subretinal 5 μl of 0.1 μg/μl, PBS control 15.3±5.4, n=7
Description: Retinal detachment was induced by subretinal injection of sodium hyaluronate. Retinal tissues were collected at various time points (1, 3, 6, 24, 72 hours) after inducing retinal detachment. Neural retina was homogenized, and mRNA expression was quantified by QPCR. To identify the cellular sources of expressed genes, samples from various retinal layers were obtained using LCM. Immunohistochemistry and Enzyme Linked-Immuno-Sorbent Assay (ELISA) were performed to show expressional changes of proteins. TUNEL staining was used in order to assess photoreceptor death induced by retinal detachment with or without subretinal administration of cytokines.
Fifty-five adult male Brown Norway rats (200-300 g, Charles River, Boston, Mass.) were used in this study. Rats were anesthetized with a 1:1 mixture of ketamine (100 mg/mL) and xylazine (20 mg/mL; both from Phoenix Pharmaceutical, St. Joseph, Mo.). Pupils were dilated with a topically applied mixture of phenylephrine (5.0%) and tropicamide (0.8%; Massachusetts Eye and Ear Infirmary internal formulary preparation). A sclerotomy was created approximately 2 mm posterior to the limbus with a 22-gauge needle. Care was taken not to damage the lens during creation of the sclerotomy. A Glaser subretinal injector (20-gauge shaft with a 32-gauge tip, BD Biosciences, San Jose, Calif.) connected to a syringe filled with 10 mg/mL Healon® sodium hyaluronate (Pharmacia and Upjohn Co., Kalamazoo, Mich.) was then introduced into the vitreous cavity. […]
Subretinal administration of select cytokines was performed following the creation of retinal detachment. […] TUNEL-positive cells were counted in a masked fashion, and standard error was determined.
To investigate effects of cytokines on photoreceptor cell death induced by retinal detachment, TUNEL staining was performed 24 hours after retinal detachment with subretinal administration of PBS, TNF-alpha (0.1 μg/μl), IL-1 beta (0.1 μg/μl), or MCP-1 (0.1 μg/μl). […] In the control condition with PBS, TUNEL-positive cells were detected in the ONL 24 hours after retinal detachment (15.3±5.4 cells/field, n=7). […]

caspase 4 = molecular target: T1, caspase 4 (Homo sapiens, UniProt P49662); conditions: cited from earlier work
T1 sequence (P49662 81-270 limits assumed): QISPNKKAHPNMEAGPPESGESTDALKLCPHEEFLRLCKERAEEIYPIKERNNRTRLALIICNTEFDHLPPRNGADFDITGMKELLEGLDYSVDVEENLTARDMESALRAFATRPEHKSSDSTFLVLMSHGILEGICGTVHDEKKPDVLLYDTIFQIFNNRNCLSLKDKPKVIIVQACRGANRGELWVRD
T1 sequence (P49662 290-377 limits assumed): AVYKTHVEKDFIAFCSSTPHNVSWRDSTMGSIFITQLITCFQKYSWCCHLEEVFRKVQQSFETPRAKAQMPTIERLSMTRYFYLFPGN

caspase 3 = molecular target: T2, caspase 3 (Homo sapiens, UniProt P42574); conditions: cited from earlier work
T2 sequence (P42574 29-175 limits assumed): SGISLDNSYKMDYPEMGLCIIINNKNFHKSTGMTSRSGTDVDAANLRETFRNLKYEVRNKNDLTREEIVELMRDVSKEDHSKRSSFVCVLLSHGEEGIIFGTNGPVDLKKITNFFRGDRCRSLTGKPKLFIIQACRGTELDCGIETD
T2 sequence (P42574 176-277 limits assumed): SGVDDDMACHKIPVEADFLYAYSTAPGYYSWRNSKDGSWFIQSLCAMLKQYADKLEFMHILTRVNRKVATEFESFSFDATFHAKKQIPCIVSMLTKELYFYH

caspase 7 = molecular target: T3, caspase 7 (Homo sapiens, UniProt P55210); conditions: cited from earlier work
T3 sequence (P55210 24-198 limits assumed): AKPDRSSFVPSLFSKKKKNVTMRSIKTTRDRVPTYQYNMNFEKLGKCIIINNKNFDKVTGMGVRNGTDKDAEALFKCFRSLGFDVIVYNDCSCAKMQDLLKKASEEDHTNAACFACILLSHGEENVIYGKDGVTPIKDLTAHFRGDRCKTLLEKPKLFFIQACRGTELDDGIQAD
T3 sequence (P55210 207-303 limits assumed): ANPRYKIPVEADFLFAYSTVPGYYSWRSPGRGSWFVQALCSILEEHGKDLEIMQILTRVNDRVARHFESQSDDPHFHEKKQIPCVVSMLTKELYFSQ

caspase 1 = molecular target: T4, caspase 1 (Homo sapiens, UniProt P29466); conditions: cited from earlier work
T4 sequence (P29466 120-297 limits assumed): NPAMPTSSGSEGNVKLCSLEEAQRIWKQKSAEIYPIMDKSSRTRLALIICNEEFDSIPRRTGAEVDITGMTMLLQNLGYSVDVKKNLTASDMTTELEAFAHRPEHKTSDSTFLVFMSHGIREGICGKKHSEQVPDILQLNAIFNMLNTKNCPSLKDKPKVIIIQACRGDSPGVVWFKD
T4 sequence (P29466 317-404 limits assumed): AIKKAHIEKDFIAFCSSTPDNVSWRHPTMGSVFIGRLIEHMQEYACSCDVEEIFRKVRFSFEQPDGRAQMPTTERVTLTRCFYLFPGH

[2] = test system: photoreceptor cell death (TUNEL-positive response in the ONL); experiment: TUNEL analysis 72 hours after retinal detachment with subretinal TNF-alpha suppressing agents; type: in vivo, rat; conditions: subretinal 5 μl, 2 mg/mL, FIG. 12
Description: Retinal detachments were created only in the right eye of each animal, and the left eye served as a control. Following retinal detachment, various treatments were administered subretinally using a Hamilton syringe equipped with a 32-gauge needle. The tip of needle was introduced through a sclerotomy and retinal hole into the subretinal space, and 5 μl of solution, either normal goat serum (0.1 mg/mL), goat anti-TNF-alpha antibody (0.1 mg/mL), or etanercept (2 mg/mL), was injected over 3 minutes. Seventy-two hours after retinal detachment, the eyes were subjected to TUNEL analysis.

[3] = test system: mRNA levels of bFGF, TNF-alpha, IL-1 beta; experiment: Realtime PCR of cytokine mRNA in detached retina after intravitreal PEDF; type: in vivo, rat; conditions: 5.0 μg intravitreal injection just after detachment versus PBS control; FIG. 16
Description: (§1) For both sets of experiments, all eyes were enucleated 72 hours after retinal detachment and embedded in paraffin. Four micron sections through the area of detachment, including the optic nerve, were obtained. Light microscopy was performed at 3× and at 32× magnification using hematoxylin-eosin staining. TUNEL staining was performed using a commercial kit (Oncogene, San Diego, Calif.) and viewed at 20× magnification using green fluorescein staining for TUNEL and blue DAPI nuclear staining. TUNEL-positive cells were counted per millimeter of tissue by a masked observer. The mean number of TUNEL-positive cells per millimeter of tissue was determined by averaging the number of TUNEL-positive cells per mm of tissue in three sections of each eye. Additionally, a realtime polymerase chain reaction (PCR) was performed for a variety of cytokines, including bFGF, TNF-alpha, and IL-1 beta, on extracted retina from normal eyes (n=6), untreated eyes with retinal detachment (n=6), PEDF-treated eyes with retinal detachment (n=6) and PBS-treated eyes with retinal detachment (n=6).
A realtime PCR was performed for a variety of cytokines, including bFGF, PEDF, TNF-alpha, IL-1 beta, HGF, CNTF, TGF beta, and IGF 1. The amount of each mRNA from each of six eyes treated with a 5.0 μg intravitreal injection of PEDF just after detachment was averaged. […]

[4] = test system: photoreceptor cell death (TUNEL-positive cells); experiment: TUNEL staining 72 hours after retinal detachment with intravitreal or subretinal PEDF; type: in vivo, rat; conditions: for difference in number of TUNEL-positive cells, intravitreally-injected control eyes versus intravitreally-injected PEDF eyes: intravitreal; for Number of TUNEL-Positive Cells, Mean: 72 hours
Description: In these experiments, retinal detachments were created in Brown Norway rats by injecting […] into the subretinal space using a transvitreous approach. Treatment with PEDF (BioProducts MD, Middletown, Md.) or control vehicle was administered immediately after detachment. In an initial set of experiments, the treatment groups included: intravitreal administration of 2.5 μg PEDF (n=6); intravitreal administration of 5.0 μg PEDF (n=9); subretinal administration of 2.5 μg PEDF (n=6); subretinal administration of 5.0 μg PEDF (n=9); intravitreal administration of control vehicle (n=3); and subretinal administration of control vehicle (n=3). In a second set of experiments, the treatment groups included: intravitreal administration of 5.0 μg PEDF (n=15); subretinal administration of 5.0 μg PEDF (n=15); intravitreal administration of control vehicle (n=9); and subretinal administration of control vehicle (n=9).
as §1

MCP-1: rat recombinant MCP-1 administered subretinally
number of TUNEL-positive cells in the ONL [1]: 67.7±46.5 cells/field

Ac-Tyr-Val-Ala-Asp-aldehyde
Ki (caspase 4): 10 nM | Ki (caspase 3): ≥ 50000 nM | Ki (caspase 7): ≥ 50000 nM | Ki (caspase 1): 10 nM

2-Val-Ala-Asp-fluoromethylketone
caspase inhibition (caspase 4): inhibits | caspase inhibition (caspase 3): inhibits | caspase inhibition (caspase 7): inhibits | caspase inhibition (caspase 1): inhibits

TNF-alpha
number of TUNEL-positive cells in the ONL [1]: did not change significantly

etanercept
TUNEL-positive response in the ONL as compared to controls [2]: significantly decreased

B1: IL-1 beta: rat recombinant IL-1 beta administered subretinally (protein, UniProt Q63264 117-268, looked up)
Interleukin-1 beta: VPIRQLHCRLRDEQQKCLVLSDPCELKALHLNGQNISQQVVFSMSFVQGETSNDKIPVALGLKGLNLYLSCVMKDGTPTLQLESVDPKQYPKKKMEKRFVFNKIEVKTKVEFESAQFPNWYISTSQAEHRPVFLGNSNGRDIVDFTMEPVSS
number of TUNEL-positive cells in the ONL [1]: did not change significantly

B2: PEDF: pigment epithelium-derived factor (BioProducts MD), neurotrophic factor (protein, UniProt P36955 20-418, looked up)
Pigment epithelium-derived …: QNPASPPEEGSPDPDSTGALVEEEDPFFKVPVNKLAAAVSNFGYDLYRVRSSTSPTTNVLLSPLSVATALSALSLGAEQRTESIIHRALYYDLISSPDIHGTYKELLDTVTAPQKNLKSASRIVFEKKLRIKSSFVAPLEKSYGTRPRVLTGNPRLDLQEINNWVQAQMKGKLARSTKEIPDEISILLLGVAHFKGQWVTKFDSRKTSLEDFYLDEERTVRVPMMSDPKAVLRYGLDSDLSCKIAQLPLTGSMSIIFFLPLKVTQNLTLIEESLTSEFIHDIDRELKTVQAVLTVPKLKLSYEGEVTKSLQEMKLQSLFDSPDFSKITGKPIKLTQVEHRAGFEWNEDGAGTTPSPGLQPAHLTFPLDYHLNQPFIFVLRDTDTGALLFIGKILDPRGP
effect on mRNA levels of bFGF, TNF-alpha, IL-1 beta, or any of the cytokines measured [3]: does not significantly alter | difference in number of TUNEL-positive cells, intravitreally-injected control eyes versus intravitreally-injected PEDF eyes ([4]; initial set of experiments): no statistically significant difference | Number of TUNEL-Positive Cells, Mean ([4]; initial set of experiments, intravitreal 2.5 μg, control 23.3): 16.9 TUNEL-positive cells per millimeter of tissue | Number of TUNEL-Positive Cells, Mean ([4]; initial set of experiments, intravitreal 5.0 μg, control 23.3): 28.4 TUNEL-positive cells per millimeter of tissue | Number of TUNEL-Positive Cells, Mean ([4]; initial set of experiments, subretinal 2.5 μg, control 63.8): 17.6±15.5 TUNEL-positive cells per millimeter of tissue and 17.7 TUNEL-positive cells per millimeter of tissue | Number of TUNEL-Positive Cells, Mean ([4]; initial set of experiments, subretinal 5.0 μg, control 63.8): 30.4±18.1 TUNEL-positive cells per millimeter of tissue and 30.4 TUNEL-positive cells per millimeter of tissue | effect on photoreceptor cell death following retinal detachment as measured using TUNEL ([4]; larger sample set, either subretinally or intravitreally): no significant effect | difference in number of TUNEL-positive cells, intravitreally-injected control eyes versus intravitreally-injected PEDF eyes ([4]; second set of experiments): no statistically significant difference | Number of TUNEL-Positive Cells, Mean ([4]; second set of experiments, intravitreal 5.0 μg, control 30.2): 30.3 TUNEL-positive cells per millimeter of tissue
